Activity calls are given as the source filed them. The calls are words filed in the database; no cut-off is given here.
How the values were obtained:
[1] = tested on: HL-60(TB); assay: Growth inhibition of human HL-60(TB) cells incubated for 48 hrs by sulforhodamine B assay; type: functional; details: HL-60, 48 h
[2] = tested on: MOLT-4; assay: Growth inhibition of human MOLT4 cells incubated for 48 hrs by sulforhodamine B assay; type: functional; details: MOLT-4, 48 h
[3] = tested on: SR; assay: Growth inhibition of human SR cells incubated for 48 hrs by sulforhodamine B assay; type: functional
[4] = tested on: EKVX; assay: Growth inhibition of human EKVX cells incubated for 48 hrs by sulforhodamine B assay; type: functional
[5] = tested on: NCI-H522; assay: Growth inhibition of human NCI-H522 cells incubated for 48 hrs by sulforhodamine B assay; type: functional; details: NCI-H522, 48 h
[6] = tested on: COLO 205; assay: Growth inhibition of human COLO205 cells incubated for 48 hrs by sulforhodamine B assay; type: functional; details: COLO 205, 48 h
[7] = tested on: HCC 2998; assay: Growth inhibition of human HCC2998 cells incubated for 48 hrs by sulforhodamine B assay; type: functional; details: HCC 2998, 48 h
[8] = tested on: SW-620; assay: Growth inhibition of human SW620 cells incubated for 48 hrs by sulforhodamine B assay; type: functional; details: SW-620, 48 h
[9] = tested on: SF-295; assay: Growth inhibition of human SF295 cells incubated for 48 hrs by sulforhodamine B assay; type: functional; details: SF-295, 48 h
[10] = tested on: U-251; assay: Growth inhibition of human U251 cells incubated for 48 hrs by sulforhodamine B assay; type: functional; details: U-251, 48 h
[11] = tested on: Malme-3M; assay: Growth inhibition of human MALME-3M cells incubated for 48 hrs by sulforhodamine B assay; type: functional
[12] = tested on: M14; assay: Growth inhibition of human M14 cells incubated for 48 hrs by sulforhodamine B assay; type: functional; details: M14, 48 h
[13] = tested on: SK-MEL-2; assay: Growth inhibition of human SK-MEL-2 cells incubated for 48 hrs by sulforhodamine B assay; type: functional; details: SK-MEL-2, 48 h
[14] = tested on: UACC-257; assay: Growth inhibition of human UACC257 cells incubated for 48 hrs by sulforhodamine B assay; type: functional; details: UACC-257, 48 h
[15] = tested on: OVCAR-3; assay: Growth inhibition of human OVCAR3 cells incubated for 48 hrs by sulforhodamine B assay; type: functional; details: OVCAR-3, 48 h
[16] = tested on: OVCAR-5; assay: Growth inhibition of human OVCAR5 cells incubated for 48 hrs by sulforhodamine B assay; type: functional; details: OVCAR-5, 48 h
[17] = tested on: NCI/ADR-RES; assay: Growth inhibition of human NCI/ADR-RES cells incubated for 48 hrs by sulforhodamine B assay; type: functional
[18] = tested on: 786-0; assay: Growth inhibition of human 786-0 cells incubated for 48 hrs by sulforhodamine B assay; type: functional; details: 786-0, 48 h
[19] = tested on: A498; assay: Growth inhibition of human A498 cells incubated for 48 hrs by sulforhodamine B assay; type: functional; details: A498, 48 h
[20] = tested on: MDA-MB-231; assay: Growth inhibition of human MDA-MB-231/ATCC cells incubated for 48 hrs by sulforhodamine B assay; type: functional; details: MDA-MB-231, 48 h
[21] = tested on: MDA-MB-468; assay: Growth inhibition of human MDA-MB-468 cells incubated for 48 hrs by sulforhodamine B assay; type: functional; details: MDA-MB-468, 48 h
[22] = tested on: CCRF-CEM; assay: Growth inhibition of human CCRF-CEM cells at 10^-5 M incubated for 48 hrs by sulforhodamine B assay relative to control; type: functional; details: read-out: GI
[23] = tested on: K562; assay: Growth inhibition of human K562 cells at 10^-5 M incubated for 48 hrs by sulforhodamine B assay relative to control; type: functional; details: K562, 48 h, read-out: GI
[24] = tested on: MOLT-4; assay: Growth inhibition of human MOLT4 cells at 10^-5 M incubated for 48 hrs by sulforhodamine B assay relative to control; type: functional; details: MOLT-4, 48 h, read-out: GI
[25] = tested on: RPMI-8226; assay: Growth inhibition of human RPMI8226 cells at 10^-5 M incubated for 48 hrs by sulforhodamine B assay relative to control; type: functional; details: RPMI-8226, 48 h, read-out: GI
[26] = tested on: UO-31; assay: Growth inhibition of human UO31 cells at 10^-5 M incubated for 48 hrs by sulforhodamine B assay relative to control; type: functional; details: UO-31, 48 h, read-out: GI
[27] = tested on: C6; assay: Cell cycle arrest in rat C6 cells assessed as increase in cell population at sub G0 phase measured after 24 hrs by propidium iodide staining based flow cytometry analysis; type: functional
[28] = tested on: C6; assay: Cell cycle arrest in rat C6 cells assessed as decrease in cell population at G2/M phase measured after 24 hrs by propidium iodide staining based flow cytometry analysis; type: functional
[29] = molecular target: T1, Dihydrofolate reductase (Homo sapiens, UniProt P00374); assay: Inhibition of human dihydrofolate reductase assessed as inhibition constant by UV-Vis spectra based Benesi Hilebrand equation analysis
T1 sequence (P00374 whole entry): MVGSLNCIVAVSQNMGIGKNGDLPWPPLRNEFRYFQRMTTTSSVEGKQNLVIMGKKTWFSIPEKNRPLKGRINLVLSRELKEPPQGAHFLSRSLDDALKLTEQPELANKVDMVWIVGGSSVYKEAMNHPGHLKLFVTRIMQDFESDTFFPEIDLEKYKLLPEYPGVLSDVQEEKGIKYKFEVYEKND

[30] = molecular target: T2, Dihydrofolate reductase (Homo sapiens) (UniProt P00374); assay: Binding affinity to human dihydrofolate reductase at 5 uM assessed as decrease in absorption band by UV-visible spectroscopic analysis
T2 sequence (whole entry): T1 sequence (P00374 whole entry)

[31] = read-out: LC50 (the source's name)
[32] = read-out: pLC50 (the source's name) (converted)

## O=c1c2ccccc2n(CC2CO2)c2ccccc12 (racemic)
[1]
  GI50: 204 nM
[1]; read-out: pTGI (converted)
  TGI: 490 nM
[2]; read-out: GI50
  GI50: 40 nM
[2]; [31]
  CC50: > 100 µM
[2]; read-out: pGI50 (converted)
  GI50: 41.7 nM
[2]; [32]
  CC50: > 100 µM
[2]; read-out: pTGI (converted)
  TGI: 316 nM
[3]; read-out: GI50
  GI50: 50 nM
[3]; [31]
  CC50: > 100 µM
[3]; read-out: pGI50 (converted)
  GI50: 50.1 nM
[3]; [32]
  CC50: > 100 µM
[3]; read-out: pTGI (converted)
  TGI: 1860 nM
[4]
  GI50: 1380 nM
[4]; [32]
  CC50: > 100 µM
[4]; read-out: pTGI (converted)
  TGI: 5.01 µM
[5]
  GI50: 372 nM
[5]; [32]
  CC50: 19.5 µM
[5]; read-out: pTGI (converted)
  TGI: 1320 nM
[6]
  GI50: 245 nM
[6]; [32]
  CC50: 64.6 µM
[6]; read-out: pTGI (converted)
  TGI: 1410 nM
[7]
  GI50: 275 nM
[7]; [32]
  CC50: 10 µM
[7]; read-out: pTGI (converted)
  TGI: 1020 nM
[8]; read-out: GI50
  GI50: 50 nM
[8]; [31]
  CC50: > 0.05 µM
[8]; read-out: pGI50 (converted)
  GI50: 56.2 nM
[8]; [32]
  CC50: > 100 µM
[8]; read-out: pTGI (converted)
  TGI: 1200 nM
[9]
  GI50: 603 nM
[9]; [32]
  CC50: > 100 µM
[9]; read-out: pTGI (converted)
  TGI: 4.27 µM
[10]
  GI50: 282 nM
[10]; [32]
  CC50: > 100 µM
[10]; read-out: pTGI (converted)
  TGI: 1350 nM
[11]
  GI50: 589 nM
[11]; [32]
  CC50: 4.9 µM
[11]; read-out: pTGI (converted)
  TGI: 2000 nM
[12]
  GI50: 331 nM
[12]; [32]
  CC50: 6.17 µM
[12]; read-out: pTGI (converted)
  TGI: 1510 nM
[13]
  GI50: 234 nM
[13]; [32]
  CC50: 2040 nM
[13]; read-out: pTGI (converted)
  TGI: 513 nM
[14]
  GI50: 457 nM
[14]; [32]
  CC50: > 100 µM
[14]; read-out: pTGI (converted)
  TGI: 2820 nM
[15]
  GI50: 288 nM
[15]; [32]
  CC50: > 100 µM
[15]; read-out: pTGI (converted)
  TGI: 1510 nM
[16]
  GI50: 513 nM
[16]; [32]
  CC50: 24 µM
[16]; read-out: pTGI (converted)
  TGI: 3.63 µM
[17]
  GI50: 257 nM
[17]; [32]
  CC50: > 100 µM
[17]; read-out: pTGI (converted)
  TGI: 1100 nM
[18]
  GI50: 372 nM
[18]; [32]
  CC50: > 100 µM
[18]; read-out: pTGI (converted)
  TGI: 5.25 µM
[19]
  GI50: 1740 nM
[19]; [32]
  CC50: 7.24 µM
[19]; read-out: pTGI (converted)
  TGI: 3.55 µM
[20]
  GI50: 631 nM
[20]; [32]
  CC50: > 100 µM
[20]; read-out: pTGI (converted)
  TGI: 3.31 µM
[21]
  GI50: 1200 nM
[21]; [32]
  CC50: 7.94 µM
[21]; read-out: pTGI (converted)
  TGI: 3.09 µM
[22]
  inhibition of growth at 10 µM: 93%
[23]
  inhibition of growth at 10 µM: 92%
[24]
  inhibition of growth at 10 µM: 100%
[25]
  inhibition of growth at 10 µM: 100%
[26]
  inhibition of growth at 10 µM: 100%
[27]
  Activity: Active
[28]
  inhibition: Active
[29]
  Ki: 1600 nM
[30]
  Activity: Active
